# Data published in patent publication US20220008372A1, “BACLOFEN FOR USE IN THE TOPICAL TREATMENT OF LOCALIZED MUSCULOSKELETAL PAIN” (ASSISTANCE PUBLIQUE - HOPITAUX DE PARIS, priority 2018, published 2022).
# Tested on: patients with localized musculoskeletal pain
# Test: Example 1: topical Baclofen cream in 19 patients, pain intensity on Visual Analogue Scale
# Type: in vivo, human
# Conditions: patient, facioscapulohumeral muscular dystrophy, before applying topical baclofen
# Experimental: The cream was prepared with Baclofen powder mixed with a Pentravan® Base (Fagron) at a final concentration of 10% w/w.
# The intensity of pain was rated using a Visual Analogue Scale (VAS) from 1 to 10.
row,SMILES,efficiency of earlier pain treatment
1,CC(=O)Nc1ccc(O)cc1 [paracetamol],poor efficiency
2,CC(C(=O)O)c1cccc(C(=O)c2ccccc2)c1 (stereo not drawn) [ketoprofene],poor efficiency
3,CN(C)CCC=C1c2ccccc2CCc2ccccc21 [amitriptyline],poor efficiency
4,NCC1(CC(=O)O)CCCCC1 [gabapentine],poor efficiency
5,COc1cccc(C2(O)CCCCC2CN(C)C)c1 (stereo not drawn) [tramadol],poor efficiency

# Tested on: patients with localized musculoskeletal pain
# Test: Example III: case reports of 3 patients applying topical baclofen
# Type: in vivo, human
# Conditions: human, in vivo
row,SMILES,efficiency of earlier pain treatment
1,COc1c(O[C@@H]2O[C@H](CO)[C@@H](O)[C@H](O)[C@H]2O)cc2c(c1OC)-c1ccc(SC)c(=O)cc1[C@@H](NC(C)=O)CC2 [Thiocolchicoside],poor efficiency
2,"NCC(CC(=O)O)c1ccc(Cl)cc1 (stereo not drawn) [baclofen per os, β-(4-chlorophenyl)-γ-aminobutyric acid]",poor efficiency

# Same assay, conditions: patient, Facioscapulohumeral muscular dystrophy, before topical baclofen
row,SMILES,efficiency of earlier pain treatment
1,C=CC1CN2CCC1CC2C(O)c1ccnc2ccc(OC)cc12.O=C(O)c1ccccc1 (stereo not drawn) [Quinine benzoate],poor efficiency
2,CN(C)CCC=C1c2ccccc2CCc2ccccc21 [amitriptyline],poor efficiency
